Literature values as cited in US6645392B2, “Method of removing wrinkles from fabric” (The Procter & Gamble Company, priority 2000, dated 2003).

Details: for water solubility: in water

| Structure (SMILES) | water solubility | solubility in water |
| --- | --- | --- |
| OCCOc1ccccc1 [2-phenoxyethanol] | about 2.67% |  |
| OCCc1ccccc1 [2-phenylethanol] | about 2% |  |
| O=[N+]([O-])C1(Br)COCOC1 [Bronidox L, 5-bromo-5-nitro-1,3-dioxane] | about 0.46% |  |
| O=[N+]([O-])C(Br)(CO)CO [Bronopol, 2-bromo-2-nitropropane-1,3-diol] | about 25% |  |
| CC1(C)C(=O)N(CO)C(=O)N1CO [DMDM hydantoin, 1,3-bis(hydroxymethyl)-5,5-dimethyl-2,4-imidazolidinedione] | more than 50% |  |
| ClC=CC[N+]12CN3CN(CN(C3)C1)C2.[Cl-] [Dowicil 200, 1-(3-Chlorallyl)-3,5,7-triaza-1-azoniaadamantane chloride] |  | freely soluble in water |
| OCc1ccccc1 [benzyl alcohol] | about 4% |  |
| [H]/N=C(\N/C(=N/[H])NCCCCCCNC(=N)NC(=N)Nc1ccc(Cl)cc1)Nc1ccc(Cl)cc1 [chlorhexidine diacetate, 1,1′-hexamethylene bis(5-(p-chlorophenyl)biguanide), reference compound] | about 1.8% |  |
| [H]/N=C(\N/C(=N/[H])NCCCCCCNC(=N)NC(=N)Nc1ccc(Cl)cc1)Nc1ccc(Cl)cc1 [chlorhexidine digluconate, 1,1′-hexamethylene bis(5-(p-chlorophenyl)biguanide), reference compound] | about 70% |  |
| CC(C)(O)C(Cl)(Cl)Cl [chlorobutanol, 1,1,1-Trichloro-2-methylpropan-2-ol] | about 0.8% |  |
| [Na+].[O-][n+]1ccccc1[S-] [sodium pyrithione] | about 50% |  |
